18 compounds from article PMC10392864, “Chukrasia tabularis limonoid plays anti-inflammatory role by regulating NF-κB signaling pathway in lipopolysaccharide-induced macrophages” (Food & Nutrition Research, 2023) can be followed below.

Data set [1] concerns LPS-induced NO production in RAW264.7 cells. The data set is described as follows: LPS-induced NO production in RAW264.7 cells (Griess reaction). It counts as cell-based. The settings on record: RAW264.7 cells, LPS 2 µg/mL, supernatant after 24 h, read-out: IC50, inhibitory activity on LPS-induced NO production in RAW264.7 cells. How it is done: The inhibitory activities of compounds 1–16 on LPS stimulated macrophages was determined by Griess reaction. The NO content was detected by the NO kit according to the protocol described earlier ([23]). RAW264.7 cells obtained from the China Center for Cultivated Studies (Shanghai, China) were maintained in DMEM containing 10% FBS, and under 5% CO2 at 37°C. Briefly, the cells were seeded in a 96-well plate (1 × 10^5 cells/well), after 8 h of pre-incubation under 5% CO2 at 37°C, compounds 1–16 were added to the well plate, respectively, for 12 h. […] The supernatant of the cell culture were collected 24 h later.

For the next data set, the system named is Huh-7 (hepatoma) cells. Description: Cytotoxicity, SRB method, Huh-7. It counts as cell-based, human. How it is done:
(§1) Huh-7 (hepatoma), MCF-7 (human breast), KB (oral epithelial), Hela (cervical), H460 (lung), A-549 (lung), and HepG2 (hepatocellular) cancer cell lines (provided by Shanghai Cell Bank) were maintained in RPMI 1640 at 37 ℃, supplemented with 10% FBS. Cytotoxicity was determined by the SRB method, with 5-fluorouracil (5-FU) as a positive control. The IC50 value was calculated using the GraphPad prism program.

For data set [2], the system named is HepG2 (hepatocellular) cells. Description: Cytotoxicity, SRB method, HepG2. It counts as cell-based, human. How it is done:
as §1
(In general: In SRB staining, fixed cells bind dye roughly in proportion to their protein.)

Data set [3] concerns KB (oral epithelial) cells. Description: Cytotoxicity, SRB method, KB. It counts as cell-based, human. How it is done:
as §1

The test system of a further data set is H460 (lung) cells. The data set is described as follows: Cytotoxicity, SRB method, H460. It counts as cell-based, human. As for the experimental part: as §1
In a further data set the test system is Hela (cervical) cells. The data set is described as follows: Cytotoxicity, SRB method, Hela. It counts as cell-based, human. How it is done: as §1
The subject of a further data set is A-549 (lung) cells. The data set is described as follows: Cytotoxicity, SRB method, A549. It counts as cell-based, human. How it is done:
as §1

Data set [4] concerns MCF-7 (human breast) cells. The data set is described as follows: Cytotoxicity, SRB method, MCF-7. It counts as cell-based. As for the experimental part: as §1
In data set [5] the test system is Huh7, HepG2, KB, H460, Hela, A-549 and MCF-7 tumor cell lines. The data set is described as follows: Cytotoxicity, SRB method, statements on all seven tumor cell lines. It counts as cell-based, human. The settings on record: for cytotoxicity on seven tumor cell lines (in words): Huh7, HepG2, KB, H460, Hela, A-549, MCF-7; for IC50: all seven cell lines, SRB method, footnote of Table S3, read-out: IC50, cytotoxicity against all cell lines tested. As for the experimental part: The cytotoxicity of the separated compounds was assessed against seven tumor cell lines, Huh7, HepG2, KB, H460, Hela, A-549 and MCF-7 ([40], [41]).
as §1

Data set [6] is described as follows: Cytotoxicity, SRB method, Huh-7. It counts as cell-based, human. As to conditions: human, Huh-7 (hepatoma) cells. How it is done:
as §1

Data set [7] can be described thus: Cytotoxicity, SRB method, HepG2. It counts as cell-based, human. The settings on record: human, HepG2 (hepatocellular) cells. How it is done: as §1
A short description of data set [8]: Cytotoxicity, SRB method, KB. It counts as cell-based, human. As to conditions: human, KB (oral epithelial) cells. As for the experimental part: as §1
The nature of data set [9]: Cytotoxicity, SRB method, H460. It counts as cell-based, human. As to conditions: human, H460 (lung) cells. As for the experimental part: as §1
Data set [10] in a line: Cytotoxicity, SRB method, Hela. It counts as cell-based, human. As to conditions: human, Hela (cervical) cells. How it is done:
as §1

Data set [11] can be described thus: Cytotoxicity, SRB method, A549. It counts as cell-based, human. As to conditions: human, A-549 (lung) cells. How it is done: as §1
A short description of data set [12]: Cytotoxicity, SRB method, MCF-7. It counts as cell-based, human. As to conditions: human, MCF-7 (human breast) cells. How it is done: as §1
Another data set has as its system xylene-induced ear edema. Description: Ear edema induced by xylene in mice. It counts as in vivo. As to conditions: 200 mg/kg intragastric, 1 h before xylene, ears weighed 1 h after xylene. The text has this: Male ICR mice (18–20 g) were provided by the Laboratory Animal Center, Fujian Medical University. […] One hour after xylene treatment, the mice were sacrificed by cervical dislocation. […] The weight difference of two plugs was used to measure the edema response (Table S1). Animal care and use complied with institutional guidelines, and the program was affirmed by the Experimental Animal Management Committee of Fujian Medical University.

Broadly, the IC50 is the point on the concentration scale where inhibition reaches its midpoint.

Where two headings read alike, the source gives them in different places.

For `COC(=O)CC1C2(C)CC34OC5(C)OC6(C7CC(=O)OC(c8ccoc8)C7(C)CCC6(O5)C13C)C(OC(=O)C(C)C)C4(O)C2OC(=O)C(C)C` (stereo not shown) [Compound 5, phragmalin, 3, 30-di-isobutyrates], the IC50 was 35.6 ± 7.23 µM in data set [1]; above 100 µM in the data set on Huh-7 (hepatoma) cells; 78 ± 12.7 µM in data set [2]; above 100 µM in data set [3]; above 100 µM with H460 (lung) cells; above 100 µM in the data set with Hela (cervical) cells. Moreover, the IC50 (with A-549 (lung) cells; in [4]) was above 100 µM throughout.

For the compound `CC(C)(O)C1OCC(C2CCC3(C)C4=CCC5C(C)(C)C(=O)CCC5(C)C4CCC23C)CC1O` (stereo not shown) [Compound 6, bourjotinolone A], the IC50 is 35.6 ± 4.29 µM in [1]; 29.6 ± 7.69 µM in the data set on Huh-7 (hepatoma) cells; 59.3 ± 4.67 µM in [2]; 29.3 ± 7.11 µM with Hela (cervical) cells; 43.6 ± 10.6 µM in the data set with A-549 (lung) cells; above 100 µM in data set [4]. In addition, the “cytotoxicity on seven tumor cell lines (in words)” value (from here on “cytotoxicity”) in data set [5] is “potent inhibitory activities”.

Consider `COC(=O)CC1C2(C)CC34OC5(C)OC6(C7CC(=O)OC(C8=CC(O)OC8=O)C7(C)CCC6(O5)C13C)C(OC(=O)C(C)C)C4(O)C2OC(=O)C(C)C` (stereo not shown) [Compound 4, phragmalin, 22, 23-dihydro-23-hydroxy-21-oxo-3, 30-di-isobutyrates], for which the figures for the IC50 in [1] and in data set [5] were 21.9 ± 5.61 µM and above 100 µM, respectively.

For “21β-methoxy-25-ene-bitrinonediol [Compound 7]”, the IC50 in data set [1] was above 100 µM; with Huh-7 (hepatoma) cells, 94.7 ± 12.5 µM; in data set [2], above 100 µM; in [3] it was 40.9 ± 6.56 µM; with H460 (lung) cells it was above 100 µM; in the data set with Hela (cervical) cells, 58.4 ± 9.09 µM. For the same compound, the IC50 (in the data set on A-549 (lung) cells; in data set [4]) was above 100 µM each time. Moreover, the “cytotoxicity” value in data set [5] is “moderate cytotoxicity”.

Regarding `COc1ccc2c(c1)c(CC(=O)O)c(C)n2C(=O)c1ccc(Cl)cc1` [Indomethacin, reference compound], in data set [1] (Mus musculus), the IC50 turned out to be 26.2 ± 1.56 µM.

Turning to `CC1(C)OC[C@H]([C@@H]2CC[C@]3(C)C4=CC[C@H]5C(C)(C)C(=O)CC[C@]5(C)[C@H]4CC[C@@]23C)C[C@@H](O)[C@@H]1O` [Compound 16, hispidone], the IC50 in [1] was above 100 µM.

Consider `O=c1[nH]cc(F)c(=O)[nH]1` [5-Fluorouracil, 5-fluorouracil, reference compound], for which the IC50 in data set [6] is 36.2 ± 4.17 µM; in data set [7] it was 30.5 ± 1.54 µM; in data set [8], 19.5 ± 1.24 µM; in [9], 13.7 ± 2.85 µM; in data set [10], 2.31 ± 0.98 µM; in [11], 36.2 ± 1.73 µM. 23.4 ± 1.22 µM corresponded to half-maximal inhibition in data set [12] (IC50).

For the compound `CC(C)(O)[C@@H](O)[C@H]1C[C@@H]([C@@H]2CC[C@]3(C)C4=CC[C@H]5C(C)(C)C(=O)CC[C@]5(C)[C@H]4CC[C@@]23C)[C@H](O)O1` [Compound 11, melianodiol], the IC50 in data set [1] worked out at 13.3 ± 2.67 µM; in the data set with Huh-7 (hepatoma) cells, 79.8 ± 9.24 µM; in data set [2], 80 ± 5.26 µM; in data set [3] it was 63.5 ± 8.25 µM; in the data set on H460 (lung) cells it was 73.2 ± 10.5 µM; with Hela (cervical) cells it was 86.3 ± 9.28 µM. In addition, the concentration for half-maximal inhibition (IC50) is 45.1 ± 6.33 µM in the data set with A-549 (lung) cells and 52.6 ± 7.2 µM in data set [4]. The “cytotoxicity” value in data set [5] was “potent inhibitory activities”.

In the case of `COC(=O)CC1C2(C)CC34OC5(C)OC6(C7CC(=O)OC(C8=CC(=O)OC8O)C7(C)CCC6(O5)C13C)C(OC(=O)C(C)C)C4(O)C2OC(=O)C(C)C` (stereo not shown) [Compound 1, Phragmalin A], the half-maximal inhibitory concentration (IC50) in data set [1] (Mus musculus) is 10.3 ± 0.39 µM.

On to `CO[C@H]1O[C@@H]([C@H](O)C(C)(C)OC)C[C@H]1[C@@H]1CC[C@]2(C)C3=CC[C@H]4C(C)(C)C(=O)CC[C@]4(C)[C@H]3CC[C@@]12C` [Compound 13, 21β, 25-dimethylmelianodiol], for which, in data set [1], the IC50 stood at 24.9 ± 4.6 µM.

As for 21β- methylmelianodiol [Compound 9], the IC50 in data set [1] was 52.5 ± 8.98 µM; in data set [2], 44.3 ± 6 µM; in [3] it was 56.6 ± 8.3 µM; with Hela (cervical) cells it was 60 ± 4.19 µM; in the data set on A-549 (lung) cells, 66 ± 10.1 µM; in data set [4], above 100 µM. Besides, in data set [5], the “cytotoxicity” value is reported as “potent inhibitory activities”.

For `C[C@@H](C[C@@H](O)[C@H](O)C(C)(C)O)[C@@H]1CC[C@]2(C)C3=CC[C@H]4C(C)(C)C(=O)CC[C@]4(C)[C@H]3CC[C@@]12C` [Compound 15, piscidinol A], the IC50 in data set [1] came to 33.6 ± 4.77 µM.

As for “24-hydroxyl-7, 25-dien-3-one [Compound 10]”, the IC50 in data set [1] was 95.1 ± 9.4 µM; in data set [5], above 100 µM.

Regarding `CO[C@@H]1O[C@@H]([C@H](O)C(C)(C)OC)C[C@H]1[C@@H]1CC[C@]2(C)C3=CC[C@H]4C(C)(C)C(=O)CC[C@]4(C)[C@H]3CC[C@@]12C` [Compound 12, 21α, 25-dimethyl-melianodiol], in data set [1], the IC50 is 13.9 ± 5.33 µM.

Turning to “3R, 23S, 24R, 25- tetraol- 7- glyoxiene [Compound 14]”, the half-inhibitory concentration (IC50) in data set [1] is 11.2 ± 1.12 µM.

In the case of `CC(=O)Oc1ccccc1C(=O)O` [Aspirin], in the data set with xylene-induced ear edema, the “Edema Degree (±SD)” value came to 4.99 ± 0.30 mg and the “Inhibition Rate of ear edema” value is on record as 36.30%.

`CCC(=O)OC1C2(O)C(OC(=O)CC(C)C)C3(C)CC24OC2(C)OC15C1CC(=O)OC(C6=CC(O)OC6=O)C1(C)CCC5(O2)C4(C)C3CC(=O)OC` (stereo not shown) [Compound 3, Chukrasin G]: the IC50 was 10.5 ± 0.98 µM in [1] (Mus musculus); above 100 µM in data set [6]; 99.4 ± 10.6 µM in data set [7]; above 100 µM in data set [8]; above 100 µM in data set [9]; above 100 µM in [10]. Also, the IC50 in [11] and in data set [12] was above 100 µM throughout.

Take `C=C(C)C(O)C(O)CC(C)C1CCC2(C)C3=CCC4C(C)(C)C(=O)CCC4(C)C3CCC12C` (stereo not shown) [Compound 8, (13a, 14b, 17a, 20S, 23R, 24R)-23, 24-dihydro-xylanosta-7, 25-dien-3-one]: the half-maximal inhibitory concentration (IC50) in [1] was 46.1 ± 6.11 µM; in data set [5] it was above 100 µM.
